Test results published in PMC5633609, “Novel Peripherally Restricted Cannabinoid 1 Receptor Selective Antagonist TXX-522 with Prominent Weight-Loss Efficacy in Diet Induced Obese Mice” (Frontiers in Pharmacology, 2017).
Like-named read-outs stand apart in the source and are kept apart here.

Key:
DIO mice and rats = test system: DIO mice and rats; set-up: method as in Alonso et al., 2012; Silvestri and Di Marzo, 2012; conditions: ref Alonso et al., 2012, Silvestri and Di Marzo; cited from earlier work
[1] = set-up: method as in earlier work; conditions: ref Chorvat et al., 2012, Klumpers et al., 2013, Knani et al., 2016, Lu et al.; cited from earlier work
human CB1R [2] = biological target: T1, human CB1R (Homo sapiens, UniProt P21554); type: cell-based
From the text: (§1) Commercial enhanced green fluorescent protein (EGFP)-CB1/CB2_U2OS cells specifically designed to screen CB1R/CB2R agonists or antagonists (Thermo Fisher Bioimage ApS, Soeborg, Denmark) were used to examine the antagonist activity and selectivity of TXX-522 for these CBR subtypes. […] Based on a previously described method ([Chen et al., 2011]), the regular EGFP-CB1/CB2_U2OS cell culture medium was replaced with F12 culture medium containing 1 μmol/L Hoechst 33342 (Invitrogen, OR, United States) before each experiment, and incubated for 20 min at 37°C. […] Dimethyl sulfoxide (DMSO, 0.1%) was used as the vehicle control. After further incubation for 2 h at 37°C, images of the cells were acquired using the IN Cell Analyzer 2000 (GE Healthcare, NJ, United States; 20× objective) and analyzed using the Granularity Analysis Module of the IN Cell. The inhibition ratio of each tested compound was expressed as percentage inhibition of the internalization induced by the reference CB1R/CB2R agonist, WIN 55,212-2. […] The results were obtained from three independent experiments each performed in triplicate.

human CB2R [3] = biological target: T2, human CB2R (Homo sapiens, UniProt P34972); test: Receptor internalization (redistribution) assay in EGFP-CB2_U2OS cells; type: cell-based; conditions: read-out: IC50 CB2R, antagonism of WIN 55,212-2-induced internalization
From the text: as §1

[4] = Steady state brain to plasma distribution after intravenous administration; type: in vivo, Sprague-Dawley rats; conditions: rat; for fraction of compound in the brain tissue: intravenous, steady state
Procedure: The compounds (2.5 mg/kg) were dissolved in 5% glucose solution containing polyoxyethylene castor oil (2.17%), 1,2-propanediol (0.56%), ethanol (0.75%), and medium chain triglycerides (0.48%) prior to intravenous administration to the Sprague-Dawley rats (n = 3), with an initial push of 0.3 mL at a speed of 75 mL/h, followed by 2.5 mL/h for 40 min. Retro-orbital blood samples (∼250 μL) were collected at defined time-points (0, 10, 15, 20, 25, 30, 35, and 40 min after dosing). The rats were then euthanized by decapitation, the brain and plasma samples were collected, and then stored at -80°C for subsequent assay. The plasma samples and whole rat brain, which had been homogenized with five volumes (v/w) of physiological saline on ice, were extracted by protein precipitation and analyzed using liquid chromatography-mass spectrometry/mass spectrometry, as previously reported ([Fulp et al., 2012]). The steady state Kp-value for each test compound was calculated and used as an index of brain penetration.

C57BL/6 mice [5] = test: WIN 55,212-2-induced hypothermia / body temperature; type: in vivo, C57BL/6J mice; conditions: for effect of compound alone on body temperature: TXX-522 alone, data not shown, WIN 55,212-2 3 mg/kg i.p.; for effect on WIN 55,212-2-induced hypothermia: oral, 1 h before WIN 55,212-2 3 mg/kg i.p., SR141716A 10 mg/kg, TXX-522 20 or 60 mg/kg, 30 min after WIN
Procedure: After a 7-day acclimation, body weight-matched male C57BL/6J mice (8-week-old) were randomly sorted into four different groups (n = 5 mice/group). […] The rectal temperature was monitored using a rectal probe coupled to a digital thermometer before and 30 min after treatment with WIN 55,212-2.

C57BL/6 mice [6] = test: Acute food intake (appetite) in fasted mice; type: in vivo; conditions: fasted C57BL/6 mice, oral; TXX-522 20 and 60 mg/kg, SR141716A 10 mg/kg; 3 h intake
Procedure: Mice (8-week-old) were maintained singly for 7 days with ad libitum access to a standard diet before testing. […] At 30 min post treatment, the mice were allowed access to rodent chow, and their food intake was measured for the subsequent 3 h.

rat hippocampal neurons = test: Fluoro-3 AM Ca2+ imaging in hippocampal neurons; type: cell-based; conditions: 10 nmol/L to 10 μmol/L; WIN 55,212-2 1 μmol/L; concentration-dependent
Procedure: Hippocampal neurons were prepared from neonatal rats as described previously and intracellular Ca^2+ levels ([Ca^2+]i) were investigated ([Chen et al., 2010]). […] WIN 55,212-2 (1 μmol/L) was added 1 min later. The fluorescence was monitored and imaged using the IN Cell Analyzer 1000 and analyzed using the Object Intensity Analysis Module of IN Cell. The [Ca^2+]i time courses were monitored by recording the relative fluorescence intensity per cell vs. time.

DIO C57BL/6 mice = test: Anti-obesity study in DIO C57BL/6 mice; type: in vivo; conditions: for effect on food intake of DIO mice: 1st week of administration; for effect on fasting blood glucose and insulin levels: overnight-fasted; for effect on serum triglyceride and total cholesterol: end of treatment, SR141716A 5 mg/kg, TXX-522 10 mg/kg; for onset of statistically significant body weight difference / effect on body weight of DIO mice: oral gavage daily 4 weeks; for effect on body weight of DIO mice: SR141716A 5 mg/kg/day
Procedure: Male C57BL/6J mice (6-week-old) were maintained on a 12-h light/dark cycle at a controlled temperature (22 ± 1°C) and were fed a high-fat diet (45% fat, 18% protein, and 37% carbohydrate) for 20 weeks to establish the DIO mouse model ([Chen et al., 2010], [2011]). Age-matched standard diet-fed lean mice were used as the normal control group. […] Individual body weights and cage food consumption were measured daily. Oral glucose tolerance testing was performed on treatment day 23 on overnight-fasted mice while the serum glucose and insulin levels were assayed as described previously ([Chen et al., 2013]). At the end of the treatment period, the mice were fasted overnight prior to collecting blood samples for the analysis of serum triglycerides and total cholesterol levels as described previously ([Xie et al., 2015]). Furthermore, the intra-abdominal white adipose tissues (epididymal, lumbar, and perirenal) were removed and weighed.

DIO Kunming mice = test: Preliminary screening test in DIO Kunming mice; type: in vivo; conditions: 3-week treatment, 20 mg/kg, data not shown
From the text: Finally, we further evaluated the in vivo pharmacodynamic effects of TXX-522 in a commonly used mouse model of obesity.

human CB1R [7] = biological target: T1, human CB1R; type: binding; set-up: host or cells: CHO (CHO-hCB1R)
Procedure: (§2) The affinities of TXX-522 for the human CB1R and CB2R receptor were analyzed using Cerep cooperation (Celle l’Evescault, France) using stably transfected CHO cells (CHO-hCB1R and CHO-hCB2R, respectively) and a previously reported competitive binding assay ([Munro et al., 1993]; [Chen et al., 2011]). Non-specific binding was determined in the presence of 10 μmol/L non-radioactive WIN 55,212-2. […] Each competitive binding inhibition curve was generated using data pooled from three independent experiments each conducted in duplicate.

human CB2R [8] = biological target: T2, human CB2R; test: Competitive radioligand binding assay, CHO-hCB2R; set-up: host or cells: CHO (CHO-hCB2R); conditions: CHO-hCB2R cells; read-out: IC50, CB2 receptor competitive binding
Procedure: as §2

human CB1R [9] = biological target: T1, human CB1R; test: Intracellular cAMP assay in CHO-hCB1 cells; type: cell-based; set-up: host or cells: CHO (CHO-hCB1R)
Procedure: (§3) The functional antagonism of the response to a CB1R agonist was previously detected in the CHO-hCB1R and CHO-hCB2R cell lines ([Chen et al., 2010], [2011]). Intracellular cAMP was analyzed in these cells using the LANCE cAMP 384 kit (AD0262, PerkinElmer, San Jose, CA, United States) following exposure to the vehicle or different concentrations of the test compounds (individually or combined) in the presence of a phosphodiesterase inhibitor (2.5 μmol/L 3-isobutyl-1-methylxanthine) for 30 min. The cAMP level detected in the vehicle-treated cells was set as 1, and the levels detected in the treated cells were expressed as fold changes compared to the control level.

human CB2R [10] = biological target: T2, human CB2R; test: Intracellular cAMP assay in CHO-hCB2 cells; type: cell-based; set-up: host or cells: CHO (CHO-hCB2R); conditions: even at 10 μmol/L
Procedure: as §3

[11] = 2.5 mg/kg intravenous infusion, 40 min

T2 sequence (P34972 whole entry): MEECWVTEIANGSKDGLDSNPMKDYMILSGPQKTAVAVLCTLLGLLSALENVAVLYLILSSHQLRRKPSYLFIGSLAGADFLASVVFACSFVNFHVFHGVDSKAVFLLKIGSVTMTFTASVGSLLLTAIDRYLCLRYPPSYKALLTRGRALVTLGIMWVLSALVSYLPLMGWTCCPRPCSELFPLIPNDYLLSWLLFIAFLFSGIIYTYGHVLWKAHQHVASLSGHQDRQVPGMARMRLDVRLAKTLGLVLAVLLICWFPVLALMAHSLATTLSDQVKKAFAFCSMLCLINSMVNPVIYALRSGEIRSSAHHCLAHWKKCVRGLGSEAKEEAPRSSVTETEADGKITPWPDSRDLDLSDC
T1 sequence (P21554 whole entry): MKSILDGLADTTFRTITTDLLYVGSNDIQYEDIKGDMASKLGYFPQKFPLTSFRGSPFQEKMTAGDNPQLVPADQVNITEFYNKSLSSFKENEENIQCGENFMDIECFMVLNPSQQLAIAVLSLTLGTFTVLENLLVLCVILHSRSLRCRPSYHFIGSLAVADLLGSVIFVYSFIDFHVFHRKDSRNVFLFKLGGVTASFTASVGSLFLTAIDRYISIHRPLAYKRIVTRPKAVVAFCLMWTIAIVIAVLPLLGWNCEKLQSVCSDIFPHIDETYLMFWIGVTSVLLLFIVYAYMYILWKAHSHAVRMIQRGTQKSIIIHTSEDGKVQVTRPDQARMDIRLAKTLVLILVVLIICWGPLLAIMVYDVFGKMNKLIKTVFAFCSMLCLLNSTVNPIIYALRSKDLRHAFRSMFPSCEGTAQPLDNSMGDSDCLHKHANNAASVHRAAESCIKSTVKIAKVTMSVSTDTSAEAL

Compound	anorexia in DIO mice and rats (DIO mice and rats)	fraction of compound in the brain tissue [4]	effect of compound alone on body temperature (C57BL/6 mice [5])	effect on WIN 55,212-2-induced hypothermia (C57BL/6 mice [5])	effect on acute food intake (C57BL/6 mice [6])	effect on food intake of DIO mice (DIO C57BL/6 mice)	effect on fasting blood glucose and insulin levels (DIO C57BL/6 mice; DIO mice)	effect on serum triglyceride and total cholesterol (DIO C57BL/6 mice)	onset of statistically significant body weight difference (DIO C57BL/6 mice)	effect on body weight of DIO mice (DIO C57BL/6 mice; TXX-522 5 or 10 mg/kg/day)	effect on intracellular cAMP level in CHO-hCB2 cells (human CB2R [10])	further results
CCCCCCc1nc(-c2ccc(Cl)cc2)n(-c2ccc(Cl)cc2Cl)n1 [LH-21]	induced anorexia	–	–	–	–	–	–	–	–	–	–	–
CC(C)[C@H](N=C(NS(=O)(=O)c1ccc(Cl)cc1)N1C[C@H](c2ccccc2)C(c2ccc(Cl)cc2)=N1)C(N)=O [JD-5037]	induced anorexia	–	–	–	–	–	–	–	–	–	–	brain to plasma distribution ratio (Kp) [1]: < 1
(5-(4-chlorophenyl)-1-(2, 4-dichlorophenyl)-4-methyl-1H-pyrazol-3-yl) (piperidin-1-yl) methanone [TXX-522]	–	2%	did not affect the body temperature	did not block	did not affect acute food consumption	no anorexia	dramatically decreased	lowered both serum triglyceride and total cholesterol levels	from 2 weeks	dose-dependently decreased	neither TXX-522 nor SR141716A affected	IC50 (human CB1R [2]; EGFP-CB1_U2OS cells, WIN 55,212-2 1 μmol/L, read-out: IC50 CB1R, antagonism of WIN 55,212-2-induced internalization): 10.3 ± 6.08 nM; CB2R/CB1R selectivity (internalization IC50 ratio) (human CB1R [2]; EGFP-CB1_U2OS vs EGFP-CB2_U2OS cells): >968; IC50 (human CB2R [3]): > 10000 nM; Kp (brain to plasma distribution ratio, steady state) ([4]; 2.5 mg/kg intravenous infusion): 0.02; steady state concentration in brain [4, 11]: 528.9 ± 1.6 ng/mL; steady state concentration in plasma [4, 11]: 23323.0 ± 267.8 ng/mL; effect on elevation and oscillation of [Ca2+]i elicited by WIN 55,212-2 (rat hippocampal neurons): blocked; effect on insulin resistance and hyperinsulinemia (DIO C57BL/6 mice; 5 mg/kg): ameliorated the insulin resistance and hyperinsulinemia more than the same dose of SR141716A did; adverse effects / apparent signs of toxicity (DIO C57BL/6 mice; DIO mice, 4 weeks, TXX-522 5 or 10 mg/kg/day): no adverse effects; weight loss and abdominal fat decrease by the end of the study (DIO C57BL/6 mice; chronic treatment, 5 and 10 mg/kg, compared with SR141716A): comparable efficacy to that of SR141716A; oral glucose tolerance testing (DIO C57BL/6 mice; treatment day 23, 5 mg/kg): ameliorated glucose intolerance more than the same dose of SR141716A did; effect on body weight and fat mass (DIO Kunming mice): significantly reduced body weight and fat mass; IC50 (human CB1R [7]; CHO-hCB1R cells, radioligand [3H]-CP 55,940 or [3H]-SR141716A, read-out: IC50, CB1R competitive binding): 170 nM; Ki (human CB1R [7]; CHO-hCB1R cells, radioligand [3H]-CP 55,940 or [3H]-SR141716A, read-out: Ki, CB1R competitive binding): 150 nM; selectivity ratio (CB1R over CB2R, binding) (human CB1R [7]; from radioligand binding values): 176; IC50 (human CB2R [8]): > 30000 nM; reversal of WIN 55,212-2-induced inhibition of forskolin-stimulated cAMP accumulation (human CB1R [9]; WIN 1 μmol/L, forskolin 0.1 μmol/L): dose-dependently reversed; maximum effect on cAMP (human CB1R [9]; at 10 μmol/L with forskolin plus WIN): equivalent to that induced by forskolin alone; effect of compound alone on forskolin-induced cAMP level (inverse agonism) (human CB1R [9]; up to 10 μmol/L, data not shown): no further increase
Cc1c(C(=O)c2cccc3ccccc23)c2cccc3c2n1[C@H](CN1CCOCC1)CO3 [WIN 55,212-2, reference compound]	–	–	notably decreased the body temperature	–	–	–	–	–	–	–	–	–
Cc1c(C(=O)NN2CCCCC2)nn(-c2ccc(Cl)cc2Cl)c1-c1ccc(Cl)cc1 [SR141716A, reference compound]	–	> 60%	–	reversed	significantly inhibited food intake	reduced food intake	dramatically decreased	notably reduced hypertriglyceridemia	from day 4 onward	significant reduction	neither TXX-522 nor SR141716A affected	Kp at 40 min ([4]; Sprague-Dawley, brain and plasma, 2.5 mg/kg intravenous infusion, read-out: Kp (brain to plasma distribution ratio, steady state)): 1.67
